# Measurements as given in article PMC9127750, “Structure-based design of CDC42 effector interaction inhibitors for the treatment of cancer” (Cell reports, 2022).
# Several values for one entry are separate records, joined by “and”; a condition that tells them apart may be missing. Identical values can stand only once.
# System: WM3248 melanoma cells, 486 antibodies
# Assay: Reverse phase protein arrays (RPPA);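 on CA9.R.C RPPA level: ratio of treated to vehicle (0 µM) normalized linear protein signal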;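 on CD171.M.V RPPA level: ratio of treated to vehicle (0 µM) normalized linear protein signal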
# Assay type: cell-based, Human
# Conditions: 10 uM
# Source text: Pellets were snap frozen in liquid nitrogen and shipped to MD Anderson Cancer Center core RPPA facility for RPPA analysis (Table S5). Three biological replicates for each sample were generated.
# Nomenclatures on the RPPA heatmaps: name_of_antibody.species_of_antibody.status_of_antibody. V - antibody validated; C - validation of antibody in progress; Q - antibody nonspecific; E – under evaluation; antibodies raised in M - mouse, G - goat, R - rabbit, or T - rat.
smiles,measurement,setting,value
"CN(C)c1cccc(Nc2cc(-c3ccccc3)nc(C3CCNCC3)n2)c1 [ARN22089, N1,N1-dimethyl-N3-(6-phenyl-2-(piperidin-4-yl)pyrimidin-4-yl)benzene-1,3-diamine]","RPPA signal, antibody VEGFR.2_pY1175.R.C, Average",average of 3 replicates,1.049
same,"RPPA signal, antibody VHL.EPPK1.M.C, Average",average of 3 replicates,1.196
same,"RPPA signal, antibody VHL.R.C, Average",average of 3 replicates,1.035
same,"RPPA signal, antibody Vinculin.M.V, Average",average of 3 replicates,0.966
same,"RPPA signal, antibody WIPI1.R.C, Average",average of 3 replicates,1.121
same,"RPPA signal, antibody WIPI2.R.C, Average",average of 3 replicates,0.943
same,"RPPA signal, antibody WTAP.R.V, Average",average of 3 replicates,1.119
same,"RPPA signal, antibody Wee1.R.C, Average",average of 3 replicates,1.020
same,"RPPA signal, antibody Wee1_pS642.R.C, Average",average of 3 replicates,0.998
same,"RPPA signal, antibody XBP.1.G.C, Average",average of 3 replicates,1.065
same,"RPPA signal, antibody XIAP.R.C, Average",average of 3 replicates,1.012
same,"RPPA signal, antibody XPA.M.V, Average",average of 3 replicates,1.058
same,"RPPA signal, antibody XRCC1.R.C, Average",average of 3 replicates,1.060
same,"RPPA signal, antibody YAP_pS127.R.V, Average",average of 3 replicates,0.978
same,"RPPA signal, antibody YB1_pS102.R.V, Average",average of 3 replicates,0.958
same,"RPPA signal, antibody YES1.R.V, Average",average of 3 replicates,1.020
same,"RPPA signal, antibody YTHDF2.R.V, Average",average of 3 replicates,0.990
same,"RPPA signal, antibody YTHDF3.R.C, Average",average of 3 replicates,1.018
same,"RPPA signal, antibody ZAP.70.R.V, Average",average of 3 replicates,1.001
same,"RPPA signal, antibody ZEB1.R.V, Average",average of 3 replicates,1.024
same,"RPPA signal, antibody TSC1.R.C",individual replicates,0.828 and 0.939
same,"RPPA signal, antibody TTF1.R.V",individual replicates,0.920 and 0.873 and 1.035
same,"RPPA signal, antibody TUFM.R.V",individual replicates,1.384 and 1.533
same,"RPPA signal, antibody Tuberin.R.V",individual replicates,1.063 and 0.958 and 0.778
same,"RPPA signal, antibody Tuberin_pT1462.R.V",individual replicates,1.389 and 0.896
same,"RPPA signal, antibody Twist.M.C",individual replicates,1.022 and 1.114
same,"RPPA signal, antibody Tyro3.R.V",individual replicates,1.207 and 1.432 and 1.052
same,"RPPA signal, antibody U.Histone.H2B.R.C",individual replicates,0.675 and 0.846 and 0.974
same,"RPPA signal, antibody UBAC1.R.V",individual replicates,0.909 and 0.974 and 0.962
same,"RPPA signal, antibody UBQLN4.M.C",individual replicates,1.002 and 0.908 and 1.014
same,"RPPA signal, antibody UGT1A.M.V",individual replicates,1.078 and 1.131 and 1.024
same,"RPPA signal, antibody ULK1_pS757.R.C",individual replicates,0.907 and 0.952
same,"RPPA signal, antibody UQCRC2.M.C",individual replicates,0.984 and 1.001 and 0.779
same,"RPPA signal, antibody UVRAG.R.C",individual replicates,0.941 and 0.945 and 1.016
same,"RPPA signal, antibody VASP.R.V",individual replicates,0.853 and 0.873 and 0.935
same,"RPPA signal, antibody VAV1.R.C",individual replicates,0.917 and 0.930 and 0.971
same,"RPPA signal, antibody VEGFR.2.R.V",individual replicates,0.830 and 0.863 and 1.064
same,"RPPA signal, antibody VEGFR.2_pY1175.R.C",individual replicates,1.135 and 1.035 and 0.978
same,"RPPA signal, antibody VHL.EPPK1.M.C",individual replicates,1.361 and 1.047
same,"RPPA signal, antibody VHL.R.C",individual replicates,1.048 and 1.060 and 0.997
same,"RPPA signal, antibody Vinculin.M.V",individual replicates,0.834 and 1.032 and 1.034
same,"RPPA signal, antibody WIPI1.R.C",individual replicates,1.084 and 1.260 and 1.018
same,"RPPA signal, antibody WIPI2.R.C",individual replicates,1.004 and 0.919 and 0.906
same,"RPPA signal, antibody WTAP.R.V",individual replicates,0.973 and 1.303 and 1.081
same,"RPPA signal, antibody Wee1.R.C",individual replicates,0.837 and 1.193 and 1.031
same,"RPPA signal, antibody Wee1_pS642.R.C",individual replicates,0.842 and 1.057
same,"RPPA signal, antibody XBP.1.G.C",individual replicates,1.054 and 1.065 and 1.076
same,"RPPA signal, antibody XIAP.R.C",individual replicates,0.980 and 0.995 and 1.063
same,"RPPA signal, antibody XPA.M.V",individual replicates,0.998 and 1.083
same,"RPPA signal, antibody XPF.R.C",individual replicates,1.061 and 1.058 and 1.015
same,"RPPA signal, antibody XRCC1.R.C",individual replicates,1.098 and 1.017
same,"RPPA signal, antibody YAP.R.C",individual replicates,1.046 and 1.136 and 1.017
same,"RPPA signal, antibody YAP_pS127.R.V",individual replicates,0.857 and 1.020 and 1.056
same,"RPPA signal, antibody YB1_pS102.R.V",individual replicates,0.792 and 0.995
same,"RPPA signal, antibody YES1.R.V",individual replicates,0.963 and 1.023
same,"RPPA signal, antibody YTHDF2.R.V",individual replicates,0.973 and 0.926
same,"RPPA signal, antibody YTHDF3.R.C",individual replicates,1.046 and 1.052 and 0.954
same,"RPPA signal, antibody ZAP.70.R.V",individual replicates,0.965 and 0.999
same,"RPPA signal, antibody ZEB1.R.V",individual replicates,0.993 and 0.988
same,C.Raf.R.C RPPA level,replicates,1.022 and 0.897 and 0.901
same,C.Raf_pS338.R.V RPPA level,replicates,0.937 and 0.962
same,CA9.R.C RPPA level,replicates,0.963 and 0.920 and 1.058
same,CD2.M.C RPPA level,replicates,1.046 and 1.013
same,CD4.R.V RPPA level,replicates,0.841 and 0.982 and 0.984
same,CD5.M.C RPPA level,replicates,1.032 and 1.016
same,CD20.R.C RPPA level,replicates,0.915 and 1.113 and 1.048
same,CD26.R.V RPPA level,replicates,0.862 and 0.937 and 1.046
same,CD29.M.V RPPA level,replicates,1.013 and 0.983 and 1.052
same,CD31.M.V RPPA level,replicates,1.033 and 1.057 and 1.013
same,CD38.R.C RPPA level,replicates,0.895 and 0.963
same,CD44.R.C RPPA level,replicates,1.029 and 1.050
same,CD45.M.V RPPA level,replicates,1.006 and 1.019
same,CD49b.M.V RPPA level,replicates,1.003 and 0.999
same,CD68.M.C RPPA level,replicates,1.022 and 1.011
same,CD74.M.V RPPA level,replicates,0.984 and 1.053
same,CD134.R.V RPPA level,replicates,1.005 and 1.057 and 0.995
same,CD171.M.V RPPA level,replicates,0.591 and 0.987 and 1.115
same,CDK1_pT14.R.C RPPA level,replicates,1.201 and 0.649 and 0.946
same,CDK9.R.V RPPA level,replicates,1.078 and 0.919
same,CDKN2A.R.C RPPA level,replicates,1.006 and 1.160
same,CDT1.R.V RPPA level,replicates,0.973 and 1.157 and 1.014
